{"source": "patent US20130225611A1", "about": "“Compositions and Methods for Reducing Cancer Cell Proliferation and Modulating Importin-Beta Function” (THE REGENTS OF THE UNIVERSITY OF CALIFORNIA, priority 2011, published 2013)", "key": {"microtubule asters": {"system": "microtubule asters", "test": "DMSO-induced aster assembly in Xenopus egg extracts", "parameters": "species or system Xenopus laevis", "conditions": "5% DMSO", "description": "Xenopus laevis egg extracts were prepared as described by Hannak et al. (2006) Nat. Protoc. 1:2305-2314. For in vitro spindle assembly, Xenopus laevis sperm DNA was added to egg extracts supplemented with rhodamine-labeled tubulin. Asters were formed by addition of 5% DMSO. DNA was stained with Hoechst dye. The formation of microtubule-based structures was assessed using epifluorescence microscopy after a 30-minute room temperature incubation. In vitro microtubule polymerization and pelleting assays were performed by incubating 25 μM bovine tubulin, 1 mM GTP, and 5% DMSO in BRB80 buffer (80 mM PIPES, 1 mM MgCl2, 1 mM EGTA, pH 6.8) at 37° C. for 30 minutes. Polymerized microtubules were pelleted through a sucrose cushion, resuspended, and analyzed by SDS PAGE."}, "CRM1": {"biological_target": "T1, CRM1 (Homo sapiens, UniProt O14980)", "T1 construct": "made in house; host or cells: SG13 cells (E. coli)", "test": "fluorescent thermal shift assay (Sypro Orange), CRM1", "assay_type": "binding", "conditions": "2 μM protein, 50 μM importazole", "description": "(§1) Experiments were performed using Applied Biosystems StepOnePlus™ Real-Time polymerase chain reaction (RT-PCR) System. Protein stocks were diluted in PBS and added 70% v/v to a Microamp® Fast 96-well Reaction Plate and maintained on ice. Compounds (importazole and control compound 3016) were then added at 30% v/v in 3% DMSO. Freshly prepared 100× water based-dilution of Sypro® Orange Protein Gel Stain was then added at 1% v/v to reach a final reaction volume of 20 μl. Samples were mixed by gentle pipetting. After sealing the plates with Microamp™ Optical Adhesive Film, the plate was subjected to a heating cycle composed of a 10 sec prewarming step at 25° C. and a gradient between 25° C. and 95° C. with a 0.3° C. ramp. Data was analyzed using the StepOnePlus™ Software v2.1."}, "RanGTP": {"biological_target": "T2, RanGTP (Homo sapiens, UniProt P62826, Q69L)", "T2 construct": "made in house; host or cells: SG13 cells (E. coli)", "test": "fluorescent thermal shift assay (Sypro Orange), RanGTP (RanQ69L)", "assay_type": "binding", "conditions": "2 μM RanQ69L, 50 μM importazole", "description": "as §1"}, "solubility in water": {"test": "solubility in water", "assay_type": "physicochemical"}, "[1]": {"system": "mitotic importin-β cargo release", "test": "Rango-3 FRET sensor FLIM in mitotic HeLa cells", "assay_type": "cell-based, human", "conditions": "DMSO controls 0.12+/−0.4 ns", "text": "A key feature of importazole, a cell-permeable importin-β/RanGTP inhibitor, is its ability to dissect novel roles of this pathway in dividing human cells, which also provide a system to analyze mitotic gradients of released cargos using FRET probes. If importazole disrupts the interaction of importin-β with RanGTP, then the chromatin-localized FRET gradient of the cargo probe Rango should be reduced, since it undergoes FRET when released from importin-β in HeLa cells. […] Thus, importazole impairs mitotic importin-β cargo release in HeLa cells.\nThe Rango-3 FRET sensor is an improved version of Rango and was created by replacing Cerulean-EYFP donor-acceptor pair in Rango with EGFP as a donor and non-fluorescent acceptor sREACh which was modified by the introduction of mild dimerization mutations. […] The emission was collected from a custom side port, filtered through a 525 nm bandpass filter (ET525/50 Chroma) and detected by a HPM-100-40 module (Becker & Hickl) containing a hybrid Hamamatsu R10467-40 GaAsP photomultiplier. Two to three days before the experiment, HeLa cells were transfected with a pSG8 plasmid containing the Rango-3 open reading frame (pK135) to induce sensor expression. […] Fluorescence lifetime images were produced and analyzed using SPCI software (Becker & Hickl)."}, "[2]": {"system": "CRM1-mediated export of NFAT-GFP", "test": "NFAT-GFP nuclear export after ionomycin washout in HEK 293 cells", "assay_type": "cell-based, human", "conditions": "HEK 293, importazole 40 μM, leptomycin B 10 ng/ml, 1 hour after ionomycin washout", "experimental": "For all import and export experiments, HEK 293 cells stably expressing NFAT-GFP were grown on glass coverslips to approximately 50% confluency prior to drug treatment. In all cases, importazole was used at 40 μM and leptomycin B was used at 10 ng/ml. For controls, DMSO was used at a concentration of 0.4%. Ionomycin was added at 1.25 μM. Importazole and leptomycin B treatments were all for 1 hour. In all experiments cells were fixed with 4% formaldehyde prior to fluorescence microscopy. DNA was visualized with 1 μg/ml Hoechst dye."}, "[3]": {"biological_target": "T3, RanGTP/importin-β interaction (Homo sapiens, UniProt Q14974)", "T3 construct": "made in house; host or cells: E. coli: BL21 (importin-β), SG13 (Ran)", "test": "RanGTP protection assay (RanGAP-stimulated hydrolysis)", "assay_type": "biochemical", "conditions": "50 μM importazole", "description": "For RanGTP protection assays, all steps were performed in buffer containing 50 mM HEPES pH 7.6 with 2.5 mM MgCl2. Loading the Ran with GTP: 40 nM Biotin labeled RCC1 was bound to streptavidin agarose resin for 30 min rotating at 4° C. The Biotin labeled RCC1 was a gift of D. Halpin. The beads were washed with fresh buffer to remove any free RCC1, and 16 μM nucleotide free Ran and 51 μM GTPγP^32 were added and Ran was allowed to load for 30 min at room temperature. The beads were then removed using a spin column, and the remaining supernatant was filtered through a Sephadex G-50 column to remove free GTPγP^32. The loaded Ran was then diluted to 1.6 μM for further use. Performing the assay: All reactions were performed in a final volume of 200 μL at and in buffer containing 50 mM HEPES pH 7.6 with 2.5 mM MgCl2. Importin-β was pre-incubated with either 0.5% DMSO or 50 μM importazole in 0.5% DMSO and 100 nM RanGTPγP^32 at room temperature. 1 μM RanGAP was added to start each reaction, and the reaction was allowed to proceed for 5 min before the reaction was stopped using 1 ml of a solution containing 7% charcoal, 10% ethanol, 0.1 M HCl, and 10 mM KH2PO4. The resulting solution was spun at 10,000 RPM for 2 min in a tabletop centrifuge to pellet the charcoal, and the resulting supernatant was removed and counted for three min per sample in a liquid scintillation counter."}, "HeLa cells": {"system": "HeLa cells", "test": "mitotic spindle defects in HeLa cells (tubulin and DNA staining)", "assay_type": "cell-based, human", "conditions": "HeLa cells treated for one hour", "description": "To examine the consequences of importazole on mitosis, HeLa cells treated for one hour were fixed and stained for tubulin and chromosomes. […] Spindle positioning was not previously attributed to the Ran pathway and this phenotype may be a consequence of astral microtubule disruption by importazole.\nCells were fixed in 4% formaldehyde and 0.1% glutaraldehyde in PHEM (60 mM PIPES, 25 mM HEPES, 10 mM EGTA, 2 mM MgSO4) at 37° C. for 15 minutes followed by permeabilization with 0.1% triton X-100 for 2 minutes at room temperature. Cells were then washed and blocked (PHEM+5% FBS+0.2% saponin) and stained by standard techniques using the E7-A anti β tubulin antibody (Developmental Studies Hybridoma Bank) diluted 1:1000 and Hoechst dye."}}, "data": [{"compound": "CC(Nc1nc(N2CCCC2)nc2ccccc12)c1ccccc1", "note": "(stereo not drawn) [importazole, (1-phenyl-ethyl)-(2-pyrrolidin-1-yl-quinazolin-4-yl)-amine]", "values": [{"measurement": "formation of microtubule asters induced by DMSO in the extract", "setting": "microtubule asters", "value": "did not impair the formation of microtubule asters"}, {"measurement": "effect on melting curve of CRM1", "setting": "CRM1", "value": "did not significantly affect the melting curves"}, {"measurement": "effect on melting curve of RanGTP", "setting": "RanGTP", "value": "did not significantly affect the melting curves"}, {"measurement": "solubility", "setting": "solubility in water", "value": "~100", "unit": "µM"}, {"measurement": "difference in fluorescence lifetime of Rango-3 donor GFP between chromosomes and distal cytoplasm", "setting": "[1]", "value": "0.07+/−0.03 ns"}, {"measurement": "CRM1-mediated export of NFAT-GFP", "setting": "[2]", "value": "occurred efficiently"}, {"measurement": "effect on ability of importin-β to protect RanGTP from RanGAP-stimulated hydrolysis", "setting": "[3]", "value": "do not indicate that importazole disrupts the RanGTP/importin-β interaction"}, {"measurement": "cells displaying off-center spindles", "setting": "HeLa cells", "value": "more than 40%"}, {"measurement": "defects in spindle assembly, chromosome alignment and spindle size", "setting": "HeLa cells; 0 to 40 μM", "value": "dose-dependent defects"}]}]}
